In the supplement of paper PMC10307832:

How the values were obtained:
Assay in all cases: relative viability (nuclei count vs DMSO), 5 days (fraction); higher = more cells survive
Kobe2602 = compound: C1=CC(=CC=C1NC(=S)NNC2=C(C=C(C=C2[N+](=O)[O-])C(F)(F)F)[N+](=O)[O-])F [Kobe2602]
Summary of the method: (§1)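 Nuclei counted with MetaXpress define viability as the ratio of treated to vehicle wells, given as a median across plates. The lung cancer cell lines were in 1536-well plates, pinned with five √10-spaced library-drug doses and imaged at 4× after 5 days and Hoechst staining. Plates passed with control CV below 25% and at least one doubling.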

Cabozantinib = compound: COc1cc2nccc(Oc3ccc(NC(=O)C4(C(=O)Nc5ccc(F)cc5)CC4)cc3)c2cc1OC [Cabozantinib]
Summary of the method: as §1

Zosuquidar = compound: O[C@@H](COc1cccc2ncccc12)CN1CCN([C@@H]2c3ccccc3[C@@H]3[C@H](c4ccccc42)C3(F)F)CC1 [Zosuquidar]
Summary of the method: as §1

Cell Line	relative viability (Kobe2602; 0.2 µM)	relative viability (Kobe2602; 0.6325 µM)	relative viability (Kobe2602; 2 µM)	relative viability (Kobe2602; 6.325 µM)	relative viability (Kobe2602; 20 µM)	relative viability (Cabozantinib; 0.02 µM)	relative viability (Cabozantinib; 0.06325 µM)	relative viability (Cabozantinib; 0.2 µM)	relative viability (Cabozantinib; 0.6325 µM)	relative viability (Cabozantinib; 2 µM)	relative viability (Zosuquidar; 0.01 µM)	relative viability (Zosuquidar; 0.03162 µM)	relative viability (Zosuquidar; 0.1 µM)	relative viability (Zosuquidar; 0.3162 µM)	relative viability (Zosuquidar; 1 µM)
NCI-H838	0.932	1.03	0.937	0.955	0.96	0.93	1	0.966	0.891	0.854	0.972	0.836	0.9	1.04	1.01
NCI-H1944	1	1.07	0.899	0.992	0.987	0.826	1.01	0.961	1.01	0.916	0.942	0.88	0.847	1.08	0.909
EBC-1	0.956	1.05	0.957	0.93	0.984	1.04	0.901	0.227	0.174	0.165	1.05	1.01	0.956	1.11	0.929
NCI-H1437	0.958	0.978	1	0.983	0.96	1.05	1.08	0.946	0.998	0.975	0.976	0.979	0.91	1.09	0.942
RERF-LC-KJ	0.981	0.943	0.959	0.9	0.906	1.02	1.1	0.935	0.996	0.994	0.943	1.03	1.03	1.04	0.971
NCI-H1395	0.978	1.22	0.893	1.06	0.976	0.797	1.23	1.01	0.938	0.815	0.914	0.869	0.717	1.18	0.891
NCI-H1651	0.982	1.01	0.981	0.967	1.01	0.95	1.07	0.92	0.981	0.968	0.985	1.02	0.911	1.02	0.983
IA-LM	0.932	1.08	0.923	0.895	0.929	1.21	1.09	0.9	1.04	1.27	0.939	1.01	0.838	0.945	0.865
NCI-H1734	1.05	1.05	0.973	0.987	1.1	0.92	1.01	1.11	1.02	0.938	1	1	0.928	1.08	0.938
NCI-H520	1.01	1.09	0.966	0.936	0.957	1.05	0.959	0.962	0.953	0.951	0.986	1.04		1.08	1.05
PC-14	0.993	1.05	0.989	1.04	0.952	1.01	1.14		0.996	0.99	0.988	0.981	0.953	1.11	0.954
NCI-H2347	1.04	1.02	1.01	1.06	1.07	1.15	1.14	1.06	0.886	0.961	1	1.05	0.854	1.11	0.991
NCI-H1793	0.862	0.889	0.853	0.86	1.04	0.846	0.992	0.59	0.832	0.776	0.902	0.754		1.15	0.892
NCI-H650	0.913	1.11	0.885	0.986	0.905	0.745	0.966	1.12	0.86	0.899	1.02	0.836	0.807	1.12	0.851
NCI-H596	1.02	0.927	1.01	0.92	1.11	1.1	1.17	1.06	1.01	0.983	1.06	0.806	1.04	1.14	1.04
